Measurements: patent US8389563B2, “C-substituted diindolylmethane compositions and methods for the treatment of multiple cancers” (The Texas A&M University System, priority 2000, dated 2013)
One block for each compound: values may come before it.

Legend:
PPARγ = target: T1, PPARγ (Homo sapiens, UniProt P37231); experiment: pGAL4-PPARγ / pGAL45 luciferase reporter assay in MCF-7 breast cancer cells; format: cell-based; conditions: 5 μM
T1 construct: expressed in transfected cells; host or cells: MCF-7 breast cancer cells
T1 sequence (P37231 238-503 limits assumed): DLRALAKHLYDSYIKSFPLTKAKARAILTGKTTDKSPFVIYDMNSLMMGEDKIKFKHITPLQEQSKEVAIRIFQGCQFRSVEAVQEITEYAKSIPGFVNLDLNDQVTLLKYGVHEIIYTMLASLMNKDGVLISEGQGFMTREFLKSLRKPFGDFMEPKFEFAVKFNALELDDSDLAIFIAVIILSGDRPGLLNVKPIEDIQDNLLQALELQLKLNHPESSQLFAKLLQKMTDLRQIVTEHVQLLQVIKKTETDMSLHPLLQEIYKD
Source text: Peroxisome proliferator-activated receptor (PPAR) is a nuclear receptor that induces differentiation in multiple tissues and cell lines. Synthetic compounds that bind PPAR (inhibit growth, induce differentiation in multiple tumor cell lines, and inhibit mammary carcinogenesis in rodent models (Mueller et al., “Terminal differentiation of human breast cancer through PPAR” Mol. Cell. 1:465 470, 1998; Elstner et al., “Ligands for peroxisome proliferator-activated receptor gamma and retinoic acid receptor inhibit growth and induce apoptosis of human breast cancer cells in vitro and in BNX mice” Proc. Natl. Acad. Sci. USA 95:8806 8811, 1998; Brockman et al., “Activation of PPARγ leads to inhibition of anchorage independent growth of human colorectal cancer cells” Gastroenterology 115:2049 1055, 1998; Tontonoz et al., “Terminal differentiation of human lipsarcoma cells induced by ligands for peroxisome proliferator-activated receptor and the retinoid X receptor” Proc. Natl. Acad. Sci. USA 94:237 241, 1997; Suh et al., “A new ligand for the peroxisome proliferator-activated receptor-PPAR, GW7845, inhibits rat mammary carcinogenesis” Cancer Res. 59:56715673, 1999). […] Ligand activation of pGAL4-PPARγ is detected using a construct containing five tandem GAL4 response elements (pGAL45) linked to a luciferase reporter gene.

[1] = system: CYP1A1-dependent ethoxyresorufin O-deethylase (EROD) activity; experiment: Induction of EROD activity in LnCAP prostate cancer cells; format: cell-based, human
Source text: (§1) Results illustrated below summarize the concentration-dependent induction of CYP1A1-dependent ethoxyresorufin O-deethylase (EROD) activity by DIM and TCDD in androgen-nonresponsive PC3 human prostate cancer cells (FIG. 12). […] We also investigated the induction of EROD activity in two additional androgen-responsive prostate cancer cell lines.

[2] = system: CYP1A1-dependent ethoxyresorufin O-deethylase (EROD) activity; experiment: Induction of EROD activity in PC3 prostate cancer cells
Source text: as §1

[3] = system: CYP1A1-dependent ethoxyresorufin O-deethylase (EROD) activity; experiment: Induction of EROD activity in 22Rv1 prostate cancer cells; conditions: treatment for 24 hrs; TCDD 0.1 to 10 nM
Source text: as §1

[4] = system: 22Rv1 human prostate cancer cells; experiment: Proliferation of 22Rv1 prostate cancer cells; format: cell-based; conditions: 1 nM TCDD

Increase in reporter gene (luciferase) activity, pGAL4-PPARγ (PPARγ): 2 fold
Compound: CCCCC/C=C/C=C1/C(=O)C=C[C@@H]1C/C=C\CCCC(=O)O [PGJ, 15-deoxy-γ^12,14-prostaglandin J2]

Compound: Clc1cc2c(cc1Cl)Oc1cc(Cl)c(Cl)cc1O2 [TCDD, 2,3,7,8-tetrachlorodibenzo-p-dioxin]
Induction of EROD activity in LnCAP cells [1]: significant induction of EROD activity | Treatment time of maximal EROD induction in PC3 cells ([2]; 10 nM TCDD): 96 h | Induction of EROD activity in PC3 cells ([2]; 10 μM DIM, 10 nM TCDD): induced EROD activity | Induction of EROD activity in PC3 cells after 24 hours ([2]; 24 hours): minimal (but significant) induction | Induction of EROD activity in 22Rv1 cells [3]: induced EROD activity | Proliferation of 22Rv1 human prostate cancer cells [4]: inhibited proliferation
